From PubChem BioAssay (NCI)
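How tested: cells in 96-well plates exposed to compound for 48 hours at five concentrations. TGI: concentration producing complete growth inhibition.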

What was measured:
Assay in all cases: growth of human tumour cells (NCI), 48 h
OVCAR-4 ovarian = system: OVCAR-4 ovarian
DMS 273 small cell lung = system: DMS 273 small cell lung
OVCAR-8 ovarian = system: OVCAR-8 ovarian
SW-620 colon = system: SW-620 colon
SN12C renal = system: SN12C renal
LOX IMVI melanoma = system: LOX IMVI melanoma
HL-60(TB) leukemia = system: HL-60(TB) leukemia
786-0 renal = system: 786-0 renal
KM20L2 colon = system: KM20L2 colon
MOLT-4 leukemia = system: MOLT-4 leukemia
UACC-62 melanoma = system: UACC-62 melanoma
KM12 colon = system: KM12 colon
NCI-H522 lung = system: NCI-H522 lung
HOP-18 NSCLC = system: HOP-18 NSCLC
NCI-H23 lung = system: NCI-H23 lung
EKVX NSCLC = system: EKVX NSCLC
SNB-78 CNS = system: SNB-78 CNS
SR leukemia = system: SR leukemia
HOP-62 NSCLC = system: HOP-62 NSCLC
CAKI-1 renal = system: CAKI-1 renal
HT29 colon = system: HT29 colon
SNB-75 CNS = system: SNB-75 CNS
TK-10 renal = system: TK-10 renal
RXF 393 renal = system: RXF 393 renal
ACHN renal = system: ACHN renal
MALME-3M melanoma = system: MALME-3M melanoma
SK-MEL-28 melanoma = system: SK-MEL-28 melanoma
IGROV1 ovarian = system: IGROV1 ovarian
CCRF-CEM leukemia = system: CCRF-CEM leukemia
OVCAR-5 ovarian = system: OVCAR-5 ovarian
OVCAR-3 ovarian = system: OVCAR-3 ovarian
K-562 leukemia = system: K-562 leukemia
NCI-H460 lung = system: NCI-H460 lung
HCT-15 colon = system: HCT-15 colon
M14 melanoma = system: M14 melanoma
HCT-116 colon = system: HCT-116 colon
A549 NSCLC = system: A549 NSCLC
UACC-257 melanoma = system: UACC-257 melanoma
UO-31 renal = system: UO-31 renal
RPMI-8226 leukemia = system: RPMI-8226 leukemia
COLO 205 colon = system: COLO 205 colon
SF-268 CNS = system: SF-268 CNS
SNB-19 CNS = system: SNB-19 CNS
LXFL 529 NSCLC = system: LXFL 529 NSCLC
SK-OV-3 ovarian = system: SK-OV-3 ovarian
NCI-H226 lung = system: NCI-H226 lung
SF-295 CNS = system: SF-295 CNS
SK-MEL-2 melanoma = system: SK-MEL-2 melanoma
XF 498 CNS = system: XF 498 CNS
HCC-2998 colon = system: HCC-2998 colon
DLD-1 colon = system: DLD-1 colon
DMS 114 small cell lung = system: DMS 114 small cell lung
SF-539 CNS = system: SF-539 CNS
M19-MEL melanoma = system: M19-MEL melanoma
U251 CNS = system: U251 CNS
SK-MEL-5 melanoma = system: SK-MEL-5 melanoma
HOP-92 NSCLC = system: HOP-92 NSCLC
A498 renal = system: A498 renal

Measured: TGI

CCOC(=O)c1c(-c2ccccc2)c(C(OC(c2ccccc2)c2c(-c3ccccc3)c(C(=O)OCC)n3ccccc23)c2ccccc2)c2ccccn12 (centres undefined)
not listed: DMS 114 small cell lung | SF-539 CNS | M19-MEL melanoma | U251 CNS | SK-MEL-5 melanoma | HOP-92 NSCLC | A498 renal
> 100 µM: all other assays above

Cc1cccc(N=C2NC(=O)C(CC(=O)Nc3ccc(C)cc3C)S2)c1 (centres undefined)
not listed: KM12 colon | HOP-18 NSCLC | HOP-62 NSCLC | COLO 205 colon | SK-OV-3 ovarian
> 100 µM: all other assays above
